Assay: Thermal stability of curcuminoids in the apolar fraction
Type: physicochemical
Conditions: stabilized as of 24-48 hours of exposure
Protocol: Initially, a greater degradation is produced which is stabilized as of 24-48 hours of exposure. Degradation is kept at 2% for temperatures lower than 50° C. and at 4% at 80° C.

COc1cc(/C=C/C(=O)CC(=O)/C=C/c2ccc(O)c(OC)c2)ccc1O [curcumin, curcumin (dipheruloylmethane)]
thermal degradation of curcuminoids (80° C): 4% | thermal degradation of curcuminoids (temperatures lower than 50° C): 2%

Reference: US6440468B1, “Method for obtaining apolar and polar extracts of curcuma and applications thereof” (A.S.A.C. Pharmaceutical International, A.I.E., priority 1994, dated 2002)
